Experiments:
P. falciparum NF54 [1] = assay: IDP rescue assay, P. falciparum NF54; assay type: cell-based; conditions: Plasmodium falciparum
Experimental: (§1) Fidock (Columbia University). […] P. falciparum cultures were treated as described in method II. For IDP (Isoprenoids.com) rescue experiments, 125 μM IDP was added to the appropriate wells for the duration of the experiment. The well-described DXR inhibitor FSM was used as a positive control. IC50 values were calculated by nonlinear regression analysis using GraphPad Prism software. All experiments were performed at least in triplicate, and data reported represent the mean ± SD.

P. falciparum NF54 [2] = assay: Method II growth-inhibition assay (PicoGreen, 3 days), NF54; assay type: cell-based; conditions: Plasmodium falciparum; chloroquine-sensitive NF54, method II
From the text: (§2) Fidock (Columbia University).

[3] = tested on: Mycobacterium tuberculosis H37Rv strain; design: method as in PMID 36320685; conditions: cited from earlier work
M. tuberculosis DXPS = target: M. tuberculosis DXPS; design: method as in PMID 36320685; conditions: Morrison inhibition constant, slow-, tight-binding; read-out: Ki* MtDXPS; cited from earlier work
P. falciparum 3D7 [4] = assay: IDP rescue assay, P. falciparum 3D7; assay type: cell-based; conditions: Plasmodium falciparum
Experimental: as §1

[5] = tested on: P. falciparum 3D7 MOCK cell line; assay: Growth inhibition of MOCK cell line (vector backbone only); assay type: cell-based; conditions: Plasmodium falciparum, 3D7, read-out: MOCK IC50, MOCK compared with 3D7-TPK+; single measurement; 95% CI in brackets
From the text: The open reading frame (ORF) encoding 1-deoxy-D-xylulose-5-phosphate synthase (PfDXPS; PF3D7_1337200) was amplified from genomic DNA isolated from unsynchronized P. falciparum 3D7 cultures using the Platinum PCR SuperMix High Fidelity (Invitrogen). Forward and reverse primers contained restriction sites for KpnI and AvrII in sense and antisense orientation, respectively (oligonucleotides pfDXPS-Kpn1-S: […]; pfDXPSmyc-Avr2-AS: […] ). PCR products and the transfection vector pARL1a-hDHFR PfARG-GFP were digested with KpnI and AvrII, purified (Gel extraction Kit and PCR purification kit; Qiagen), and cloned into the transfection vector yielding the construct for overexpression pARL-DXS-strep. XL 10-Gold E. coli ultracompetent cells (Agilent Technologies) were transformed with the generated construct to amplify the plasmid and colonies checked using restriction analysis and sequencing of the plasmid. Bacterial clones carrying the overexpression construct and the empty pARL1a vector (MOCK plasmid) were amplified in overnight cultures, isolated (Plasmid Maxi Kit; QIAGEN), and subsequently used to transfect P. falciparum 3D7 ring-stage parasites, as already described.[59] Briefly, 120 μg of plasmid DNA was centrifuged and air-dried, and the pellet was resuspended in TE buffer and cytomix reagent and mixed with the P. falciparum culture. Parasites were transfected using electroporation and selected with WR 99210. The generation and characterization of the PfTPK overexpression cell line has been reported before.[60]
P. falciparum cultures were treated as described in method I. For target specification toward PfTPK and PfDXPS, compounds were tested in comparison against overexpressing cell lines and the respective MOCK line containing only the transfected vector backbone. Parasite viability/proliferation was determined.

[6] = tested on: MEP pathway metabolites in E. coli ΔTolC; assay: LC-MS/MS profiling of MEP pathway metabolites in E. coli; conditions: 48 μM (10× the IC50), 2 h, pyruvate concentration drops
Experimental: Overnight cultures of E. coli ΔTolC were diluted 1:1000 in LB media and grown at 37 °C until reaching the mid logarithmic phase (OD600 = 0.67–7.2). […] For normalization, the OD600 was determined after 2 h of treatment with the inhibitor. Cells were pelleted by centrifugation for 5 min at 3000g at 4 °C. The supernatants were removed, and cells were washed twice with 1× PBS. The supernatants were removed, and the pellets were stored at −80 °C until analysis. […]
For pyruvate analysis from the E. coli samples, the LC separation was done on the Shimadzu Nexera II using the Poroshell 120 (Agilent, 2.7 μm, 150 × 2.1 mm) flowing at 0.5 mL/min. […] Metabolites were detected using MRM transitions that were previously optimized using standards. […] For quantification, an external standard curve was prepared using a series of standard samples containing different concentrations of metabolites and fixed concentration of the internal standard. […]

[7] = Metabolic stability in human liver S9 fraction; assay type: in vitro ADME; conditions: human, pooled liver S9 fraction, 1 μM compound
Experimental: For the evaluation of combined phase I and phase II metabolic stability, the compound (1 μM) was incubated with 1 mg/mL pooled liver S9 fraction (XenoTech), 2 mM NADPH, 1 mM UDPGA, 10 mM MgCl2, 5 mM GSH, and 0.1 mM PAPS at 37 °C for 0, 5, 15, 30, and 60 min. The metabolic stabilities of testosterone (1 μM), verapamil (1 μM), and propranolol (1 μM) were determined in parallel to confirm the enzymatic activity of the S9 fraction. The incubation was stopped by precipitation of S9 enzymes with two volumes of cold acetonitrile containing internal standard (150 nM diphenhydramine). Samples were stored on ice for 10 min, and precipitated protein was removed by centrifugation (15 min, 4 °C, 4000 rpm). The concentration of the remaining test compound at the different time points was analyzed by LC-MS/MS (TSQ Quantum Access MAX, Thermo Fisher, Dreieich, Germany) and used to determine half-life (t1/2).

P. falciparum 3D7 [8] = assay: Method II growth-inhibition assay (PicoGreen, 3 days), 3D7; assay type: cell-based; conditions: Plasmodium falciparum, 3D7, method II
From the text: as §2

[9] = tested on: MEP pathway and TCA cycle metabolites in P. falciparum 3D7; assay: LC-MS/MS profiling of MEP pathway, TCA cycle, glycolytic and pentose phosphate metabolites in P. falciparum; assay type: cell-based, Plasmodium falciparum; conditions: 12 h
Hep G2 cells = assay: Hep G2 viability assay (counter screen); assay type: cell-based, human; conditions: cytotoxicity, 48 h
Experimental: HepG2 cells (2 × 10^5 cells per well) were seeded in 24-well, flat-bottomed plates. Culturing of cells, incubations, and OD measurements were performed as described previously with small modifications.[58] 24 h after seeding the cells, the incubation was started by the addition of compounds in a final DMSO concentration of 1%. The metabolic activity of the living cell mass was determined after 48 h. At least three independent measurements were performed for each compound. The IC50 values were determined during logarithmic growth using GraphPad Prism software. All experiments were performed at least in triplicate, and data reported represent the mean ± SD.

P. falciparum 3D7 [10] = assay: Method III growth inhibition assay (HRP2-ELISA, 3 days), 3D7; assay type: cell-based, Plasmodium falciparum; conditions: Plasmodium falciparum, 3D7, 3D7, method III (HRP2 assay), drc package of R; read-out: IC50 P. falciparum 3D7 (method III)

For `Cc1nc(N)sc1-c1csc(Nc2ccc(C(F)(F)F)cc2)n1` [compound 1], the IC50 (P. falciparum NF54 [1]; NF54, 72 h, + IDP (125 μM)) was 500 nM, the IC50 (P. falciparum NF54 [1]; NF54, without IDP) was 800 ± 100 nM and the IC50 (P. falciparum NF54 [2]) was 800 ± 100 nM. For the same molecule, the MIC [3] was 5 to 10 µM, the Ki (M. tuberculosis DXPS) was 210 ± 30 nM and the IC50 (P. falciparum 3D7 [4]; 3D7, 72 h, + IDP (125 μM)) was 2400 ± 200 nM. The IC50 (P. falciparum 3D7 [4]; 3D7, without IDP) was 1900 ± 200 nM, the IC50 [5] was 1180 nM and the “MEP pathway metabolite concentrations upon inhibitor treatment” value [6] was “all downstream metabolites of DXPS are increased”. For the same molecule, the half-life at 1 μM [7] was over 4 h, the IC50 (P. falciparum 3D7 [8]; 95% CI in brackets, read-out: IC50 B) was 1600 nM and the IC50 (P. falciparum 3D7 [8]; read-out: IC50 3D7-II) was 1700 ± 600 nM. For the same molecule, the “DOXP, Mean of + 1” value ([9]; 1 at 7.65 μM (5× IC50), UNT 1,163, P >0,99999) was 1,163, the “MEcDP, Mean of + 1” value ([9]; 1 at 7.65 μM, UNT 11,24, P 0,720090) was 10,20 and the “PEP, Mean of + 1” value ([9]; 1 at 7.65 μM, UNT 11,98, P 0,005029) was 5,297. For the same molecule, the “GC3P, Mean of + 1” value ([9]; 1 at 7.65 μM, UNT 13,48, P 0,003896) was 6,757, the “3PGA, Mean of + 1” value ([9]; 1 at 7.65 μM, UNT 14,78, P 0,037010) was 8,127 and the “G6P, Mean of + 1” value ([9]; 1 at 7.65 μM, UNT 17,23, P 0,044056) was 6,793. For the same molecule, the “MAL, Mean of + 1” value ([9]; 1 at 7.65 μM, UNT 53,67, P 0,001940) was 23,30, the “2PGA, Mean of + 1” value ([9]; 1 at 7.65 μM, UNT 61,07, P 0,050194) was 31,49 and the “CIT, Mean of + 1” value ([9]; 1 at 7.65 μM, UNT 64,80, P 0,008553) was 25,15. For the same molecule, the “CDP-ME, Mean of + 1” value ([9]; 1 at 7.65 μM, UNT 0,06667, P 0,587914) was 0,07667, the “S7P, Mean of + 1” value ([9]; 1 at 7.65 μM, UNT 90,64, P 0,340281) was 54,93 and the “PYR, Mean of + 1” value ([9]; 1 at 7.65 μM, UNT 102,5, P 0,030535) was 28,19. For the same molecule, the “G1P/F6P, Mean of + 1” value ([9]; 1 at 7.65 μM, UNT 103,0, P 0,112890) was 57,13, the “LAC, Mean of + 1” value ([9]; 1 at 7.65 μM, UNT 104,2, P 0,388380) was 80,23 and the “SUC, Mean of + 1” value ([9]; 1 at 7.65 μM, UNT 118,0, P 0,002161) was 60,23. For the same molecule, the “DMADP, Mean of + 1” value ([9]; 1 at 7.65 μM, UNT 0,1667, P 0,032540) was 0,1033, the “HDMADP, Mean of + 1” value ([9]; 1 at 7.65 μM, UNT 0,2200, P 0,306022) was 0,1833 and the “MEP, Mean of + 1” value ([9]; 1 at 7.65 μM, UNT 0,4233, P 0,070645) was 0,3100. For the same molecule, the “FUM, Mean of + 1” value ([9]; 1 at 7.65 μM, UNT 1668, P 0,003295) was 727,7, the “ACO, Mean of + 1” value ([9]; 1 at 7.65 μM, UNT 1,877, P 0,144422) was 1,140 and the “RU5P/RUP, Mean of + 1” value ([9]; 1 at 7.65 μM, UNT 5,757, P 0,038874) was 2,520. For the same molecule, the IC50 (Hep G2 cells; Homo sapiens, HepG2, 48 h) was 54000 ± 2400 nM, the IC50 (Hep G2 cells) was over 50000 nM and the IC50 (P. falciparum 3D7 [10]) was 600 ± 200 nM.

From article PMC10928712, “High Target Homology Does Not Guarantee Inhibition: Aminothiazoles Emerge as Inhibitors of Plasmodium falciparum” (ACS Infectious Diseases, 2024)
